pKd: −log10 of the molar value. Calls of active or inactive are those of the source. The calls are words filed in the database; no cut-off is given here.
Legend:
[1] = biological target: T1, Lysine-specific demethylase 4B (Homo sapiens, UniProt O94953); experiment: Binding affinity to 6His-tagged and human KDM4B tandem TUDOR domain (916 to 1030 residues) expressed in Escherichia coli BL21(DE3)-T1R by ITC method
T1 sequence (O94953 whole entry): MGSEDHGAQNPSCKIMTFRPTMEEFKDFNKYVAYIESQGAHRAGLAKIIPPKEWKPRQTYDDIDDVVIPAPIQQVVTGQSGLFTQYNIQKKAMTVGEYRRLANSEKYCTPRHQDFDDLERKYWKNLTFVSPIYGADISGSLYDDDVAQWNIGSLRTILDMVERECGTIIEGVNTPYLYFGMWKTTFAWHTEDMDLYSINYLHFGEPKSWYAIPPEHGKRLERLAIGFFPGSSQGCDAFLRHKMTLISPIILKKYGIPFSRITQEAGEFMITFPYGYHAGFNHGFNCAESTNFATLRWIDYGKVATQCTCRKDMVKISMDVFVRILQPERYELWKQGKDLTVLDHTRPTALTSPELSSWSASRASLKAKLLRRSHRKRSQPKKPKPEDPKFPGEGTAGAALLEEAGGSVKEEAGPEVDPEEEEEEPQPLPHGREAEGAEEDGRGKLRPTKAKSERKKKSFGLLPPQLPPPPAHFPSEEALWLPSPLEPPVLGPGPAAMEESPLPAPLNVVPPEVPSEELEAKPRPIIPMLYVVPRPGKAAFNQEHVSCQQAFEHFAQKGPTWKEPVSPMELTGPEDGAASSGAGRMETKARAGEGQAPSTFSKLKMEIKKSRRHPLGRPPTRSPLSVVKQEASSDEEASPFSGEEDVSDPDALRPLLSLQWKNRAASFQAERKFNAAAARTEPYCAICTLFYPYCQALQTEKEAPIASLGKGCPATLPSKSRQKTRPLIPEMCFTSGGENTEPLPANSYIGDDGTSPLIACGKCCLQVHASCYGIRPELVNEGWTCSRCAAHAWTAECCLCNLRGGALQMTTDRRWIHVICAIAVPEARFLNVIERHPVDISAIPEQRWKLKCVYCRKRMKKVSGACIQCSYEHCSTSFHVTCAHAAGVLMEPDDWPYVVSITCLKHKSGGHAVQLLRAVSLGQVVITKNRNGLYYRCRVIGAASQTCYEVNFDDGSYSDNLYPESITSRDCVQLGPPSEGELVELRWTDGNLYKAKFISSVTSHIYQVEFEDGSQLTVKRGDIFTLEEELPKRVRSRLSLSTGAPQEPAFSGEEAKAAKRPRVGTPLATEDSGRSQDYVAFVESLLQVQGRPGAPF

[2] = system: T2, Lysine-specific demethylase 4A (Homo sapiens), O75164 [W967A]; experiment: Binding affinity to thrombin cleavable N-terminal 6His tagged and 13C-IVLM labeled human KDM4A tandem TUDOR domain (897 to 1011 residues) W967A mutant expressed in Escherichia coli BL21(DE3)-T1R by ITC method
T2 sequence (whole entry): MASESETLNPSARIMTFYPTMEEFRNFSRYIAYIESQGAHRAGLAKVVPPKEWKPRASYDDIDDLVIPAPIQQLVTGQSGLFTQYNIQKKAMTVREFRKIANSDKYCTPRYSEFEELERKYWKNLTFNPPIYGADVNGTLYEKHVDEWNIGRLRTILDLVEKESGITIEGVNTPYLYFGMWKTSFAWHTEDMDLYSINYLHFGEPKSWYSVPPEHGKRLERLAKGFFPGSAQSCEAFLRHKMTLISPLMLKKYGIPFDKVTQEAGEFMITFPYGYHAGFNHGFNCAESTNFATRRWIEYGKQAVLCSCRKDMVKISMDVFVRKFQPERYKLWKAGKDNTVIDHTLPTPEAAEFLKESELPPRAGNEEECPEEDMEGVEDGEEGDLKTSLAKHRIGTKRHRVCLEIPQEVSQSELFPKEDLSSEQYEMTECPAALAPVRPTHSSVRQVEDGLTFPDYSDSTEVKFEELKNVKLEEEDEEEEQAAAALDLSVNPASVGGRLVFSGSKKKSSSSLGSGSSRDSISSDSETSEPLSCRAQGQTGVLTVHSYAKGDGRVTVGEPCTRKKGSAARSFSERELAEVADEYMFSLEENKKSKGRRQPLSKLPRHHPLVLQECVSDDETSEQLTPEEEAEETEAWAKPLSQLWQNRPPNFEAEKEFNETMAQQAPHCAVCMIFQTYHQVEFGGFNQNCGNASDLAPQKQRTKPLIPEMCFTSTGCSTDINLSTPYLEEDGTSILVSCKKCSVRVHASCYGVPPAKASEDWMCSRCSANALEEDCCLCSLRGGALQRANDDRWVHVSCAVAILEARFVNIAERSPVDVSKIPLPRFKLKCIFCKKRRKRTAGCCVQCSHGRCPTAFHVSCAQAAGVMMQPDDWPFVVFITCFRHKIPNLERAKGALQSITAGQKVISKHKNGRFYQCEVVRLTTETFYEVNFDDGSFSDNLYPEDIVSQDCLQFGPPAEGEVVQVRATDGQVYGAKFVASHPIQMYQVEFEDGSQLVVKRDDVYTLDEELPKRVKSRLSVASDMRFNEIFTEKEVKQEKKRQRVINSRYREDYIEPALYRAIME

- pKd [1]: 3.90
- Activity [2]: inactive
SMILES: CN(C)C[C@H]1C2CCC(c3ccccc3)(C2)[C@H]1O (some centres not stated)

From ChEMBL document CHEMBL4190382, “Targeting lysine specific demethylase 4A (KDM4A) tandem TUDOR domain - A fragment based approach” (Bioorg Med Chem Lett, 2018)
